PMC10744391, “Sulfated Triterpene Glycosides from the Far Eastern Sea Cucumber Cucumaria djakonovi: Djakonoviosides C1, D1, E1, and F1; Cytotoxicity against Human Breast Cancer Cell Lines; Quantitative Structure–Activity Relationships” (Marine Drugs, 2023)
“Also recorded” adds a separate entry of the source. Structures can show the parent of a compound that is named as a salt. Where two headings read alike, the source gives them in different places.

Experiments:
Type in all cases: cell-based
[1] = tested on: human breast cancer cell lines MCF-7, T-47D and MDA-MB-231; experiment: Cytotoxic activity (MTT assay), statements on the human breast cancer cell lines together; settings: MCF-7, T-47D, MDA-MB-231; concentration range up to 50 µM
Description: Human erythrocytes were purchased from the Station of Blood Transfusion, Vladivostok. Human mammary epithelial cell line MCF-10A CRL-10317, human breast cancer cell lines T-47D HTB-133, MCF-7 HTB-22, and MDA-MB-231 CRM-HTB-26 were received from ATCC (Manassas, VA, USA). Culturing conditions: medium of RPMI-1640 with 1% penicillin/streptomycin (Biolot, St. Petersburg, Russia) and 10% fetal bovine serum (FBS) (Biolot, St. Petersburg, Russia) for T-47D cell line; Minimum Essential Medium (MEM) with 1% penicillin/streptomycin sulfate (Biolot, St. Petersburg, Russia) and FBS (Biolot, St. Petersburg, Russia) to a final concentration of 10% for MCF-7 and MDA-MB-231 cells; DMEM/F12 medium with 10% FBS, 20 ng/mL EGF, […], 100 ng/mL cholera toxin, 10 μg/mL insulin, and 1% penicillin/streptomycin (Bioinnlabs, Russia) for MCF-10A cell line.
Methodology: to each well of 96-well plates, the cell suspension (180 µL) with solution (20 µL) of tested glycoside in the certain concentration was placed (MCF-10A, MCF-7, T-47D, and MDA-MB-231—7 × 10^3 cells per well) and incubated in the atmosphere with 5% CO2 at 37 °C for 24 h. The times of incubation of cucumarioside A2-5 (6) and djakonoviosides C1 (1) and E1 (3), at concentrations of 0.5–12.0 μM with T-47D, MCF-7, or MDA-MB-231 cells, were 24, 48, and 72 hrs. Then, the solutions of tested compounds with medium were replaced by 100 µL of fresh medium, and 10 µL of 3-(4,5-dimethylthiazol-2-yl)-2,5-diphenyltetrazolium bromide (MTT) (PanReac, AppliChem, Darmstadt, Germany) stock solution (5 mg/mL) was added to each well and incubated for 4 h, followed by the addition of 100 µL of SDS-HCl solution (1 g SDS/10 mL d-H2O/17 µL 6 N HCl) and further incubated for 18 h. Multiskan FC microplate photometer (Thermo Fisher Scientific, Waltham, MA, USA) was used to measure the absorbance of the converted dye formazan at 570 nm. The concentration caused 50% cell metabolic activity inhibition (IC50), which expresses the cytotoxic activity of each glycoside. The experiments were conducted in triplicate, p ≤ 0.05.

[2] = tested on: T-47D human breast cancer cell line; experiment: cells; settings: for IC50: read-out: Cytotoxicity, IC50, T-47D; for Selectivity Index (SI), T-47D: ratio of IC50 for healthy (MCF-10A) and cancer cells
[3] = tested on: triple-negative MDA-MB-231 human breast cancer cell line; experiment: cells; settings: for IC50: read-out: Cytotoxicity, IC50, MDA-MB-231; for Selectivity Index (SI), MDA-MB-231: ratio of IC50 for healthy (MCF-10A) and cancer cells
[4] = tested on: MCF-7 human breast cancer cell line; experiment: cells; settings: for IC50: read-out: Cytotoxicity, IC50, MCF-7; for Selectivity Index (SI), MCF-7: ratio of IC50 for healthy (MCF-10A) and cancer cells
[5] = tested on: human erythrocytes; experiment: Hemolytic activity against human erythrocytes; settings: for HC50: Erythrocyte, read-out: ED50, Erythrocytes (hemolytic activity); for hemolytic activity (in words): concentration range up to 50 µM
Method: Human blood (B(III) Rh+) was used to obtain erythrocytes by centrifuging 450× g three times for 5 min with phosphate-buffered saline (PBS) (pH 7.4) at 4 °C on centrifuge LABOFUGE 400R (Heraeus, Hanau, Germany). Ice-cold PBS (pH 7.4) was used for resuspension of erythrocytes residue to a final optical density of 1.5 at 700 nm, which was kept on ice. Then, 20 µL of tested compound solution or control—djakonovioside A1 [5]—were added to 180 µL of erythrocyte suspension in V-bottom 96-well plates and exposed for 1 h at 37 °C. Next, centrifugation at 900× g for 10 min on laboratory centrifuge LMC-3000 (Biosan, Riga, Latvia), led to layers’ separation, and 100 µL of supernatant was carefully decanted and transferred into new flat-plate each. The values of erythrocyte lysis were measured on microplate photometer Multiskan FC (Thermo Fisher Scientific, Waltham, MA, USA) at λ = 570 nm as hemoglobin concentration in supernatant. The effective dose, causing lysis of 50% erythrocytes (ED50), was calculated with SigmaPlot 14.0 software. All the experiments were carried out in triple repetitions, p ≤ 0.05.

[6] = in vitro; settings: human
[7] = human erythrocytes, 1 h at 37 °C, dose causing lysis of 50% erythrocytes

Structure (SMILES)	HC50 [5, 7] [µM]	hemolytic activity (in words) ([5]; human erythrocytes)	Selectivity Index (SI), T-47D [2]	Selectivity Index (SI), MDA-MB-231 [3]	Selectivity Index (SI), MCF-7 [4]	IC50 ([2]; Homo sapiens, T47D, 24 h) [µM]	IC50 ([3]; Homo sapiens, MDA-MB-231, 24 h) [µM]	IC50 ([4]; Homo sapiens, MCF7, 24 h) [µM]	IC50 at 24 h [6] [µM]	further results
COC1C(O)C(CO)OC(OC2C(O)C(COS(=O)(=O)O)OC(OC3C(C)OC(OC4C(OC5CCC6(C)C7CCC8(C)C(C(C)=O)CCC8(C)C7=CCC6C5(C)C)OCC(OS(=O)(=O)O)C4O)C(OC4OCC(O)C(O)C4O)C3O)C2O)C1O (stereo not shown) [cucumarioside A3-2]	17.9 ± 0.48	moderate hemolytic activity; also recorded: low hemolytic activity								cytotoxic activity against human tumor cell lines (in words) [1]: not active; IC50 ([2]; Homo sapiens, T47D, MTT, 24 h incubation): > 50 µM; IC50 ([3]; Homo sapiens, MDA-MB-231, MTT, 24 h incubation): > 50 µM; IC50 ([4]; Homo sapiens, MCF7, MTT, 24 h incubation): > 50 µM; IC50 ([6]; MTT, 24 h incubation, read-out: Cytotoxicity, IC50, MCF-10A): > 50 µM
CO[C@@H]1[C@@H](O)[C@H](O[C@@H]2[C@@H](O)[C@H](O[C@H]3[C@H](O)[C@@H](O)[C@H](O[C@H]4[C@H](O[C@H]5CC[C@]6(C)[C@@H]7CCC89C(=O)O[C@@](C)(C[C@@H](O)CC(C)C)[C@H]8[C@@H](OC(C)=O)C[C@@]9(C)C7=CC[C@H]6C5(C)C)OC[C@@H](OS(=O)(=O)O)[C@@H]4O)O[C@@H]3C)OC[C@H]2O)O[C@H](CO)[C@H]1O (stereo partly shown) [djakonovioside A1, reference compound]			1.15	1.45	0.66					IC50 ([2]; MTT, 24 h incubation): 15.2 ± 0.96 µM; IC50 ([3]; MTT, 24 h incubation): 12.1 ± 0.54 µM; IC50 ([4]; MTT, 24 h incubation): 26.43 ± 0.14 µM; ED50, Erythrocytes (hemolytic activity) [5, 7]: 2.52 ± 0.23 µM
COC1C(O)C(CO)OC(OC2C(O)C(CO)OC(OC3C(CO)OC(OC4C(OC5CCC6(C)C7CCC89C(=O)OC(C)(CCC=C(C)C)C8C(OC(C)=O)CC9(C)C7=CCC6C5(C)C)OCC(OS(=O)(=O)O)C4O)C(OC4OCC(O)C(O)C4O)C3O)C2O)C1O [djakonovioside D1, 3β-O-{3-O-methyl-β-D-glucopyranosyl-(1→3)-β-D-glucopyranosyl-(1→4)-[(1→2)-β-D-xylopyranosyl]-β-D-glucopyranosyl-(1→2)-4-O-sodium sulfate-β-D-xylopyranosyl}-16β-acetoxyholosta-7,24-dien]	7.74 ± 0.37					> 50	> 50	> 50	> 50	hemolytic activity (in words) ([5]; human erythrocytes, listed as D1): slightly lower but significant; hemolytic activity (in words) ([5]; human erythrocytes, listed as Djakonovioside D1): moderate hemolytic activity; also recorded: slightly less hemolytic
COC1C(O)C(COS(=O)(=O)O)OC(OC2C(O)C(COS(=O)(=O)O)OC(OC3C(C)OC(OC4C(OC5CCC6(C)C7CCC8(C)C(C(C)(O)C(=O)CC=C(C)C)CCC8(C)C7=CCC6C5(C)C)OCC(OS(=O)(=O)O)C4O)C(OC4OCC(O)C(O)C4O)C3O)C2O)C1O [djakonovioside F1, 3β-O-{6-O-sodium sulfate-3-O-methyl-β-D-glucopyranosyl-(1→3)-6-O-sodium sulfate-β-D-glucopyranosyl-(1→4)-[(1→2)-β-D-xylopyranosyl]-β-D-quinovopyranosyl-(1→2)-4-O-sodium sulfate-β-D-xylopyranosyl}-(20R)-hydroxy-22-oxo-lanosta-7,24-dien]		high hemolytic effect	1.02	1.16	0.63	22.5 ± 1.78	20 ± 0.63	36.8 ± 0.73	23.2 ± 0.78	HC50 ([5]; Homo sapiens, 1 h): 0.51 ± 0.01 µM
C=C(C)CCCC1(C)OC(=O)C23CCC4C(=CCC5C(C)(C)C(OC6OCC(OS(=O)(=O)O)C(O)C6OC6OCC(OC7OC(CO)C(O)C(OC8OC(CO)C(O)C(OC)C8O)C7O)C(O)C6OC6OCC(O)C(O)C6O)CCC45C)C2(C)CC(OC(C)=O)C13 (stereo not shown) [djakonoviosides C1]		slightly lower but significant								
COC1C(O)C(CO)OC(OC2C(O)C(CO)OC(OC3C(C)OC(OC4C(OC5CCC6(C)C7CCC89C(=O)OC(C)(CC=CC(C)(C)O)C8C(OC(C)=O)CC9(C)C7=CCC6C5(C)C)OCC(OS(=O)(=O)O)C4O)C(OC4OCC(O)C(O)C4O)C3O)C2O)C1O (stereo not shown) [frondoside A2-3]	> 50	absence of the activity				> 50	> 50	> 50	> 50	hemolytic activity (in words) ([5]; human erythrocytes, listed as Frondoside A2-3): did not show hemolytic or cytotoxic activity
COC1C(O)C(COS(=O)(=O)O)OC(OC2C(O)C(COS(=O)(=O)O)OC(OC3C(C)OC(OC4C(OC5CCC6(C)C7=CCC8(C)C(C(C)=O)CCC8(C)C7CCC6C5(C)C)OCC(OS(=O)(=O)O)C4O)C(OC4OCC(O)C(O)C4O)C3O)C2O)C1O (stereo not shown) [isokoreoside A]	17.4 ± 0.57	moderate hemolytic activity; also recorded: low hemolytic activity				> 50	> 50	> 50	> 50	
COC1C(O)C(COS(=O)(=O)O)OC(OC2C(O)C(COS(=O)(=O)O)OC(OC3C(C)OC(OC4C(OC5CCC6(C)C7CCC8(C)C(C(C)=O)CCC8(C)C7=CCC6C5(C)C)OCC(OS(=O)(=O)O)C4O)C(OC4OCC(O)C(O)C4O)C3O)C2O)C1O (stereo not shown) [koreoside A]	> 50	did not show hemolytic or cytotoxic activity; also recorded: complete loss of the activity				> 50	> 50	> 50	> 50	
C=C(C)CCCC1(C)OC(=O)C23CCC4C(=CCC5C(C)(C)C(OC6OCC(OS(=O)(=O)O)C(O)C6OC6OC(CO)C(OC7OC(CO)C(O)C(OC8OC(CO)C(O)C(OC)C8O)C7O)C(O)C6OC6OCC(O)C(O)C6O)CCC45C)C2(C)CC(OC(C)=O)C13 (stereo not shown) [okhotoside A2-1]	1.53 ± 0.14		1.03	0.97	0.31	11.9 ± 0.42	12.6 ± 0.16	39.81 ± 0.18	12.2 ± 0.16	
